Laboratory results from ChEMBL document CHEMBL1132238, “A peptide agonist acts by occupation of a monomeric G protein-coupled receptor: dual sites of covalent attachment to domains near TM1 and TM7 of the same molecule make biologically significant domain-swapped dimerization unlikely” (J Med Chem, 1999).

Target: T1, Cholecystokinin receptor (Homo sapiens, UniProt P32239+P32238)
T1 sequence (P32239 whole entry): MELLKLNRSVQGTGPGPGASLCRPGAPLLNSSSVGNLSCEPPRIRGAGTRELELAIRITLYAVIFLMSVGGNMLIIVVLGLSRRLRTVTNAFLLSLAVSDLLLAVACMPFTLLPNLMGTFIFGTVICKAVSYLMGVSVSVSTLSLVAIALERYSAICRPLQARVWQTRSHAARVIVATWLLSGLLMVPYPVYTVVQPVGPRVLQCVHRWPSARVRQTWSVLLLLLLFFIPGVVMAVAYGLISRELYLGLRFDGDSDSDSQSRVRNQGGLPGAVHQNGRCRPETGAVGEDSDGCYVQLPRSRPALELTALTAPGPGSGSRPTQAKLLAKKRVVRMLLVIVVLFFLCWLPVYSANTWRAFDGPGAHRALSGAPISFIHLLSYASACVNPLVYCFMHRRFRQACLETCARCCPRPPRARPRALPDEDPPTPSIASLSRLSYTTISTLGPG
T1 sequence (P32238 whole entry): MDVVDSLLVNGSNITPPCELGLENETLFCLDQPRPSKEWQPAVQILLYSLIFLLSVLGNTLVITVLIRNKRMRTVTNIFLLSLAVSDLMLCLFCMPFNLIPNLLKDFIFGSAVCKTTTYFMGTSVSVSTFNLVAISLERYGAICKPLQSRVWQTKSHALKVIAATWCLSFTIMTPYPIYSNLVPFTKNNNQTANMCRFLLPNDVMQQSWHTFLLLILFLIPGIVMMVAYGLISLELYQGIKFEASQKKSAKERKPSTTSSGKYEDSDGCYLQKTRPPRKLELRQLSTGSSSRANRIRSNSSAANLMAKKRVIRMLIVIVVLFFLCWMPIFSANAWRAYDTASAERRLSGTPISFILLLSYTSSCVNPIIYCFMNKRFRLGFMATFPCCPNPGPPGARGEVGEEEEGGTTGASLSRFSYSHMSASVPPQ
Assay: Ability to stimulate intracellular calcium response was determined using CCK receptor-bearing chinese hamster ovary cell line
Type: functional, cell-based, Cricetulus griseus

Question: Which EC50 does the source give for `CCCC[C@H](NC(=O)[C@H](Cc1c[nH]c2ccccc12)NC(=O)[C@H](Cc1ccc(C(=O)c2ccccc2)cc1)NC(=O)[C@H](CCCC)NC(=O)[C@H](Cc1ccc(OS(=O)(=O)O)cc1)NC(=O)[C@H](CC(=O)O)NC(=O)CNC(=O)[C@H](N)Cc1ccc(O)cc1)C(=O)N[C@@H](CC(=O)O)C(=O)N[C@@H](Cc1ccc(C(=O)c2ccccc2)cc1)C(N)=O` here?
Answer: 150 nM

Question: With `CCCC[C@H](NC(=O)[C@H](Cc1c[nH]c2ccccc12)NC(=O)[C@H](Cc1ccc(C(=O)c2ccccc2)cc1)NC(=O)[C@H](CCCC)NC(=O)[C@H](Cc1ccc(OS(=O)(=O)O)cc1)NC(=O)[C@H](CC(=O)O)NC(=O)CNC(=O)[C@H](N)Cc1ccc(O)cc1)C(=O)N[C@@H](CC(=O)O)C(=O)N[C@@H](Cc1ccccc1)C(N)=O` as the compound, how does the EC50 read?
Answer: 28 nM

Question: `CCCC[C@H](NC(=O)[C@H](Cc1ccc(OS(=O)(=O)O)cc1)NC(=O)[C@H](CC(=O)O)NC(=O)CNC(=O)[C@H](N)Cc1ccc(O)cc1)C(=O)NCC(=O)N[C@@H](Cc1c[nH]c2ccccc12)C(=O)N[C@@H](CCCC)C(=O)N[C@@H](CC(=O)O)C(=O)N[C@@H](Cc1ccc(C(=O)c2ccccc2)cc1)C(N)=O` was tested. Which EC50 did it give?
Answer: 280 nM
